Data: ChEMBL document CHEMBL4507296 (2021)

Assays:
[1] = target: Mitogen-activated protein kinase kinase kinase 1 (Homo sapiens) (UniProt Q13233); settings: Compound concentration 1000.0 nM
[2] = target: Beta-3 adrenergic receptor (Homo sapiens) (UniProt P13945); settings: Compound concentration 10.0 uM
[3] = target: Receptor tyrosine-protein kinase erbB-4 (Homo sapiens) (UniProt Q15303); settings: Compound concentration 1000.0 nM
[4] = test system: Receptor-type tyrosine-protein kinase FLT3 (Homo sapiens), P36888 [N841I]; settings: Compound concentration 1000.0 nM
[5] = target: Serine/threonine-protein kinase Sgk2 (Homo sapiens) (UniProt Q9HBY8); settings: Compound concentration 1000.0 nM
[6] = target: 5-hydroxytryptamine receptor 2C (Homo sapiens) (UniProt P28335); settings: Compound concentration 10.0 uM
[7] = target: Glycogen synthase kinase-3 beta (Homo sapiens) (UniProt P49841); settings: Compound concentration 1000.0 nM
[8] = target: Cyclin-dependent kinase 18 (Homo sapiens) (UniProt Q07002); settings: Compound concentration 1000.0 nM
[9] = test system: Phosphatidylinositol 4,5-bisphosphate 3-kinase catalytic subunit alpha isoform (Homo sapiens), P42336 [H1047L]; settings: Compound concentration 1000.0 nM
[10] = target: Tyrosine-protein kinase Fer (Homo sapiens) (UniProt P16591); settings: Compound concentration 1000.0 nM
[11] = target: Membrane-associated tyrosine- and threonine-specific cdc2-inhibitory kinase (Homo sapiens) (UniProt Q99640); settings: Compound concentration 1000.0 nM
[12] = target: Insulin-like growth factor 1 receptor (Homo sapiens) (UniProt P08069); settings: Compound concentration 1000.0 nM
[13] = target: 1-phosphatidylinositol 3-phosphate 5-kinase (Homo sapiens) (UniProt Q9Y2I7); settings: Compound concentration 1000.0 nM
[14] = test system: Epidermal growth factor receptor (Homo sapiens), P00533 [G719S]; settings: Compound concentration 1000.0 nM
[15] = target: Dual specificity mitogen-activated protein kinase kinase 2 (Homo sapiens) (UniProt P36507); settings: Compound concentration 1000.0 nM
[16] = target: Mitogen-activated protein kinase 1 (Homo sapiens) (UniProt P28482); settings: Compound concentration 1000.0 nM
[17] = target: Serine/threonine-protein kinase 38 (Homo sapiens) (UniProt Q15208); settings: Compound concentration 1000.0 nM
[18] = target: Dual specificity protein kinase TTK (Homo sapiens) (UniProt P33981); settings: Compound concentration 1000.0 nM
[19] = target: Death-associated protein kinase 2 (Homo sapiens) (UniProt Q9UIK4); settings: Compound concentration 1000.0 nM
[20] = target: Serine/threonine-protein kinase LATS2 (Homo sapiens) (UniProt Q9NRM7); settings: Compound concentration 1000.0 nM
[21] = target: Tyrosine-protein kinase Fyn (Homo sapiens) (UniProt P06241); settings: Compound concentration 1000.0 nM
[22] = target: 5-hydroxytryptamine receptor 6 (Homo sapiens) (UniProt P50406); settings: Compound concentration 10.0 uM
[23] = target: Muscle, skeletal receptor tyrosine-protein kinase (Homo sapiens) (UniProt O15146); settings: Compound concentration 1000.0 nM
[24] = target: Macrophage colony-stimulating factor 1 receptor (Homo sapiens) (UniProt P07333); settings: Compound concentration 1000.0 nM
[25] = test system: Proto-oncogene tyrosine-protein kinase receptor Ret (Homo sapiens), P07949 [M918T]; settings: Compound concentration 1000.0 nM
[26] = target: Serine/threonine-protein kinase PLK4 (Homo sapiens) (UniProt O00444); settings: Compound concentration 1000.0 nM
[27] = target: Ephrin type-A receptor 7 (Homo sapiens) (UniProt Q15375); settings: Compound concentration 1000.0 nM
[28] = target: Mitogen-activated protein kinase 8 (Homo sapiens) (UniProt P45983); settings: Compound concentration 1000.0 nM
[29] = target: Calcium/calmodulin-dependent protein kinase type 1D (Homo sapiens) (UniProt Q8IU85); settings: Compound concentration 1000.0 nM
[30] = target: Testis-specific serine/threonine-protein kinase 3 (Homo sapiens) (UniProt Q96PN8); settings: Compound concentration 1000.0 nM
[31] = test system: ALK tyrosine kinase receptor (Homo sapiens), Q9UM73 [L1196M]; settings: Compound concentration 1000.0 nM
[32] = target: MTNR1B (Cricetulus griseus) (UniProt G3H6N9); assay: Melatonin 2 (hamster) CEREP ligand profiling; settings: Compound concentration 10.0 uM
[33] = target: Cytoplasmic tyrosine-protein kinase BMX (Homo sapiens) (UniProt P51813); settings: Compound concentration 1000.0 nM
[34] = target: TRAF2 and NCK-interacting protein kinase (Homo sapiens) (UniProt Q9UKE5); settings: Compound concentration 1000.0 nM
[35] = target: Tyrosine-protein kinase JAK2 (Homo sapiens) (UniProt O60674); settings: Compound concentration 1000.0 nM
[36] = target: Tyrosine-protein kinase receptor TYRO3 (Homo sapiens) (UniProt Q06418); settings: Compound concentration 1000.0 nM
[37] = target: Hepatocyte growth factor receptor (Homo sapiens) (UniProt P08581); settings: Compound concentration 1000.0 nM
[38] = target: Serine/threonine-protein kinase PAK 1 (Homo sapiens) (UniProt Q13153); settings: Compound concentration 1000.0 nM
[39] = target: Phosphatidylinositol 3-kinase C2 domain-containing subunit gamma (Homo sapiens) (UniProt O75747); settings: Compound concentration 1000.0 nM
[40] = target: Mitogen-activated protein kinase kinase kinase 9 (Homo sapiens) (UniProt P80192); settings: Compound concentration 1000.0 nM
[41] = target: RAC-beta serine/threonine-protein kinase (Homo sapiens) (UniProt P31751); settings: Compound concentration 1000.0 nM
[42] = target: Muscarinic acetylcholine receptor M3 (Homo sapiens) (UniProt P20309); settings: Compound concentration 10.0 uM
[43] = target: Phosphatidylinositol 4,5-bisphosphate 3-kinase catalytic subunit beta isoform (Homo sapiens) (UniProt P42338); settings: Compound concentration 1000.0 nM
[44] = target: Ribosomal protein S6 kinase alpha-4 (Homo sapiens) (UniProt O75676); settings: Compound concentration 1000.0 nM
[45] = target: Serine/threonine-protein kinase PAK 3 (Homo sapiens) (UniProt O75914); settings: Compound concentration 1000.0 nM

Chain of Testis-specific serine/threonine-protein kinase 3 (Homo sapiens) (Q96PN8 whole entry): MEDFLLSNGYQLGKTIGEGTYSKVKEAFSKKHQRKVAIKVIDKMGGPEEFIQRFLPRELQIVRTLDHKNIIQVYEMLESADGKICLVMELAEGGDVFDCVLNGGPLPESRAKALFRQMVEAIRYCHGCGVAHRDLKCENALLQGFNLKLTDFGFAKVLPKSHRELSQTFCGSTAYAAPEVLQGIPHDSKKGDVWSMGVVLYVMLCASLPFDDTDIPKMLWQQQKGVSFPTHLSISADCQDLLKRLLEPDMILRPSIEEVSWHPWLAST
Chain of Beta-3 adrenergic receptor (Homo sapiens) (P13945 whole entry, looked up): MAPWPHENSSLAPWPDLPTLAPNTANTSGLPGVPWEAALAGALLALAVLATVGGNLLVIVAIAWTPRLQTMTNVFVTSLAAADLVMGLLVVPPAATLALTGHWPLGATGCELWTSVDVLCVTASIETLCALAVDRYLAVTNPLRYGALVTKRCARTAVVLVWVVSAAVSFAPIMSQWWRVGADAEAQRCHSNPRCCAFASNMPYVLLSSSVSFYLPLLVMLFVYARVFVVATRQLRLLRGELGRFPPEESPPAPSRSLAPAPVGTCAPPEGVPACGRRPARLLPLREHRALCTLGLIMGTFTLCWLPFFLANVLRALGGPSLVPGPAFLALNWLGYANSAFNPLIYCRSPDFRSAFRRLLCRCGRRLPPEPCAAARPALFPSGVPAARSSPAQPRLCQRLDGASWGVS
Chain of Tyrosine-protein kinase Fer (Homo sapiens) (P16591 whole entry, looked up): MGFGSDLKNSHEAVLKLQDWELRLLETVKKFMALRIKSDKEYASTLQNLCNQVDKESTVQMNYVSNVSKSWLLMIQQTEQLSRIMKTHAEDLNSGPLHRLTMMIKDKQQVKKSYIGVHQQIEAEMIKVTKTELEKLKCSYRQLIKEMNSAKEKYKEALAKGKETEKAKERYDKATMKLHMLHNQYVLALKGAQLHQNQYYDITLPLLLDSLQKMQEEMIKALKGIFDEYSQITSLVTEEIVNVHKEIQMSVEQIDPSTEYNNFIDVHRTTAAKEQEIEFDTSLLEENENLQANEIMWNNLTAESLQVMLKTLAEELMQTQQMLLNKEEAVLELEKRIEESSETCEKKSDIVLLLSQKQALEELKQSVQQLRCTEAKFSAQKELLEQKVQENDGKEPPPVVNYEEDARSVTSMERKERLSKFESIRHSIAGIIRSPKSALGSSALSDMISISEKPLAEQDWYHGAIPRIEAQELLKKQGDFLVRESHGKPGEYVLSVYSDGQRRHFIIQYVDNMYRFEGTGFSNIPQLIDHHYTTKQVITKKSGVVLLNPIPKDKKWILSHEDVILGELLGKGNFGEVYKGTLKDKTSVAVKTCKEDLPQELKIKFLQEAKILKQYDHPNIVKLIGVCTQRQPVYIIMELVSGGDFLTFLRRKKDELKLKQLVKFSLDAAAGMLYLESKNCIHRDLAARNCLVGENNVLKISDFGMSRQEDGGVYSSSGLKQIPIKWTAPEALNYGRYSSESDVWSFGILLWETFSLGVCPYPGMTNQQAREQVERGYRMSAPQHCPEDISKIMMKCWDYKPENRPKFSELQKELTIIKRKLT
Chain of Death-associated protein kinase 2 (Homo sapiens) (Q9UIK4 whole entry, looked up): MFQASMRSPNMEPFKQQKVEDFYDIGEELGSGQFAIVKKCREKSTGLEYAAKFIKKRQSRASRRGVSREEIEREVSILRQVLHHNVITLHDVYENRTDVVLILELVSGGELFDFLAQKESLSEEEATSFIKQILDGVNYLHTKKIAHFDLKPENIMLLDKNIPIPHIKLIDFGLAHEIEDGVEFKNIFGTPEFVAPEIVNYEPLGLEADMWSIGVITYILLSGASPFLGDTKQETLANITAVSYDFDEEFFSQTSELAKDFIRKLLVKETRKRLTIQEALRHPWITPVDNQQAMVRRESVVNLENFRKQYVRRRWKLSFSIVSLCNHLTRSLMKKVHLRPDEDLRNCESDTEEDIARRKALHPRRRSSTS
Chain of Serine/threonine-protein kinase PLK4 (Homo sapiens) (O00444 whole entry): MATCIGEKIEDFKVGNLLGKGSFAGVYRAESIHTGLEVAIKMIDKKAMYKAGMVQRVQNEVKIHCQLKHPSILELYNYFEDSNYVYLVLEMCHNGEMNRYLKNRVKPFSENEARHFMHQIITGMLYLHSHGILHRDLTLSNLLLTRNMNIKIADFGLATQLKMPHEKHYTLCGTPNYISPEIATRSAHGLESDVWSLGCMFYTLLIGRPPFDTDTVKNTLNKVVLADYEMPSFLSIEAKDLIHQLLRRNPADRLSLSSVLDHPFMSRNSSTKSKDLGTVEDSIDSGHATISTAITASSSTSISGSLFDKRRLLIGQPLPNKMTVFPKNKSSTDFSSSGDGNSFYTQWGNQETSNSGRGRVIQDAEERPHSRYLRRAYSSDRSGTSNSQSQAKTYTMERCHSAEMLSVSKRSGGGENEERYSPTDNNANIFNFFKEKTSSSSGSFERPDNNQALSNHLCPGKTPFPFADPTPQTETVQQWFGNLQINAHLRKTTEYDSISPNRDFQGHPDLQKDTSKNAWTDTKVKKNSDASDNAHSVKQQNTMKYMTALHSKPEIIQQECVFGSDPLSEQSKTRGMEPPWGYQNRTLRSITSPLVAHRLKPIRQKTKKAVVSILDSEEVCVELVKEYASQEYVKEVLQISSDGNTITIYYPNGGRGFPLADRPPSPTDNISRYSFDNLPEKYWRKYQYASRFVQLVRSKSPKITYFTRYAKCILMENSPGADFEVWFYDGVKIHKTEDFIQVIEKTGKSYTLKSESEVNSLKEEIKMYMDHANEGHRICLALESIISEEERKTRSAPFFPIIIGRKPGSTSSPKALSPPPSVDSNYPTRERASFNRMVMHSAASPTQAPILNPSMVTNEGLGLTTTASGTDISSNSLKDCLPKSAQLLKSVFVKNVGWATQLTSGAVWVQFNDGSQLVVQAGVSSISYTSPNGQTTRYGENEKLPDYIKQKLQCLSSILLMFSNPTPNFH
Chain of Dual specificity protein kinase TTK (Homo sapiens) (P33981 whole entry): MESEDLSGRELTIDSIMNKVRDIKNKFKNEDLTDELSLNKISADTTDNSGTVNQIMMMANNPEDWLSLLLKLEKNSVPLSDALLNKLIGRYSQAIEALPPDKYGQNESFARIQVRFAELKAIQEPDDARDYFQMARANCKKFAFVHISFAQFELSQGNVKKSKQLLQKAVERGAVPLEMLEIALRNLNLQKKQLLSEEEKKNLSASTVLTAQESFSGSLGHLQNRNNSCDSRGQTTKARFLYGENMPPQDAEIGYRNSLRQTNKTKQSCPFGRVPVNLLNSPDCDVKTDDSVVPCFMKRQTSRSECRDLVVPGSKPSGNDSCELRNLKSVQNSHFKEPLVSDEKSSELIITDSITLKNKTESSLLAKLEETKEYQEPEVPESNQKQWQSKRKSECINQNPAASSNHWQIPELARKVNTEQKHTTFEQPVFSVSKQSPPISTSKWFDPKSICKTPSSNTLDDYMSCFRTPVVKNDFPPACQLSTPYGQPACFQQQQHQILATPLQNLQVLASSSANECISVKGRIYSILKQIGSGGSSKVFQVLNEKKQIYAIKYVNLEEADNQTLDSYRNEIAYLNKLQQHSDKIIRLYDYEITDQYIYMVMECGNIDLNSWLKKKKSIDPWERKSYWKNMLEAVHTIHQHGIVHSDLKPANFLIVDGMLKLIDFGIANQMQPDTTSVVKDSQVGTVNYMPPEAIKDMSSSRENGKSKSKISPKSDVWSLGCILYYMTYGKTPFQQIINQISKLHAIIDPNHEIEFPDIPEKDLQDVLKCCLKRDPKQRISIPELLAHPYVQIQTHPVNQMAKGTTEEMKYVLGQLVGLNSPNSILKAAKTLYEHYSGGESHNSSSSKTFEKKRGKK
Chain of Ribosomal protein S6 kinase alpha-4 (Homo sapiens) (O75676 whole entry, looked up): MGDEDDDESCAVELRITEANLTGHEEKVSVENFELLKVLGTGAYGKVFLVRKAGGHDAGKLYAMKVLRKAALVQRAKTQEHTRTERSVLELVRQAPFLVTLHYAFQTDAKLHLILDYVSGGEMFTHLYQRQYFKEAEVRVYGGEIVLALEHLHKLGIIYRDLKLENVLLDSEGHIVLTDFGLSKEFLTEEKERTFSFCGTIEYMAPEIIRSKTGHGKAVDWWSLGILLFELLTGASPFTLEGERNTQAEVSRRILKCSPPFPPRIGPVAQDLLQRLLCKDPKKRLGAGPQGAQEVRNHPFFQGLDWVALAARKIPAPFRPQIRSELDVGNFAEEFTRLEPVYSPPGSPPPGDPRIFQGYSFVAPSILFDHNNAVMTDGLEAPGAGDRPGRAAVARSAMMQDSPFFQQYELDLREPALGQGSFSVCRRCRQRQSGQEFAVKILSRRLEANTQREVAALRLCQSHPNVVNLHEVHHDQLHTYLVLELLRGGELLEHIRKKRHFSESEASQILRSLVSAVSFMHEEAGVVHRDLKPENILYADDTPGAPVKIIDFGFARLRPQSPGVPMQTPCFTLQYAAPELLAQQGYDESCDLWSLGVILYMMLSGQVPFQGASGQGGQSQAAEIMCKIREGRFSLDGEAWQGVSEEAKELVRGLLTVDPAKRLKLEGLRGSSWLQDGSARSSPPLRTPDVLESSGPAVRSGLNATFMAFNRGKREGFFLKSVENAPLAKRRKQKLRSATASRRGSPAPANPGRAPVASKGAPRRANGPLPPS
Chain of 5-hydroxytryptamine receptor 6 (Homo sapiens) (P50406 whole entry): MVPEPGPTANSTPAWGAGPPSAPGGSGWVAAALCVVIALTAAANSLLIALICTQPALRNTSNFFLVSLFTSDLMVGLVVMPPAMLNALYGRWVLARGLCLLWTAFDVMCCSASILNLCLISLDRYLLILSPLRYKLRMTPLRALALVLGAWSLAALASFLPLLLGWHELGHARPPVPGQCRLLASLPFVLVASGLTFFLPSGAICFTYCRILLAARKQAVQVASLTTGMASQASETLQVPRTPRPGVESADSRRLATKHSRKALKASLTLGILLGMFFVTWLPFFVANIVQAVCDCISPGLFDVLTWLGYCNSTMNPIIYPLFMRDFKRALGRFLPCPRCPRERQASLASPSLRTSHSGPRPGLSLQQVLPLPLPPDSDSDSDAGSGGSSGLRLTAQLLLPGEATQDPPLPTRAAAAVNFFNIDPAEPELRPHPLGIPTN

C[C@H](c1ccc(F)cc1)N(Cc1cccc(C(=O)O)c1)C(=O)c1cnc2ccccc2c1 [PF-05105679]
inactive: residual activity [1] 100% | inhibition [2] 2.81% | residual activity [3] 94% | residual activity [4] 62% | residual activity [5] 93% | inhibition [6] 6.54% | residual activity [7] 100% | residual activity [8] 100% | residual activity [9] 100% | residual activity [10] 100% | residual activity [11] 68% | residual activity [12] 100% | residual activity [13] 100% | residual activity [14] 100% | residual activity [15] 100% | residual activity [16] 99% | residual activity [17] 100% | residual activity [18] 100% | residual activity [19] 88% | residual activity [20] 64% | residual activity [21] 63% | inhibition [22] 3.57% | residual activity [23] 76% | residual activity [24] 100% | residual activity [25] 86% | residual activity [26] 100% | residual activity [27] 80% | residual activity [28] 100% | residual activity [29] 100% | residual activity [30] 64% | residual activity [31] 76% | inhibition [32] 32% | residual activity [33] 99% | residual activity [34] 95% | residual activity [35] 88% | residual activity [36] 100% | residual activity [37] 100% | residual activity [38] 100% | residual activity [39] 100% | residual activity [40] 100% | residual activity [41] 87% | inhibition [42] -7.68% | residual activity [43] 100% | residual activity [44] 100% | residual activity [45] 96%
